Counter-ions that a name gives are not always drawn.
These compounds were tested against T1, human hNET (Homo sapiens, UniProt P23975) (assay: Norepinephrine (NE) uptake assay in MDCK-Net6 cells). Settings: 1 μM test compound, [3H]NE uptake, read-out: % Inhibition @ 1 μM (hNET).
T1 construct: expressed in transfected cells; host or cells: MDCK-Net6 (MDCK cells, stably transfected)
Format: cell-based
How it was run: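 Radiolabelled NE uptake was counted by scintillation after NaOH lysis, with 1 µM desipramine defining non-specific uptake. EC50 came from a logistic dose-response fit.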

T1 sequence (P23975 whole entry): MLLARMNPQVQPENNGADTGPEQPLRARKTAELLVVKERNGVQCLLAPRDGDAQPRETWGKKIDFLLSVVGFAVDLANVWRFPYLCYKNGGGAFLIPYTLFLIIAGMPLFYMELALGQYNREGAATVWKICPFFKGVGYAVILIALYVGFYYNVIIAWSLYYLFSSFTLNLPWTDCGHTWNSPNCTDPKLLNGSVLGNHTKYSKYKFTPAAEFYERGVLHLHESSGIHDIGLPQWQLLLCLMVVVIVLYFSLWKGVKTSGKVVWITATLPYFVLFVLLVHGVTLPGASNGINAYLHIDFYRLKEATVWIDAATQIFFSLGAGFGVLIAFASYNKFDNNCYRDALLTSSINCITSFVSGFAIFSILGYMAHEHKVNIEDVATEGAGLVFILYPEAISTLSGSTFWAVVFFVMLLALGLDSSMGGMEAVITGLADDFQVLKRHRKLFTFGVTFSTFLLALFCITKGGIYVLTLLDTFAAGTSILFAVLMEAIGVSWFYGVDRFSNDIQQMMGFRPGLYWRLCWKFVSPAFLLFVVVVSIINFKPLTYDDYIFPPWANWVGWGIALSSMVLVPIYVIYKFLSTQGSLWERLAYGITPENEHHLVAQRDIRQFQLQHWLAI

Row | SMILES | inhibition at 1 µM [%]
1 | CN1CCN(CC(c2ccc(-c3cc(Cl)cc(Cl)c3)cc2)C2(O)CCC2)CC1 (stereo not drawn) [Example 297, 1-[1-(3′,5′-dichloro-1,1′-biphenyl-4-yl)-2-(4-methylpiperazin-1-yl)ethyl]cyclobutanol dihydrochloride] | 4
2 | C#Cc1cccc(C(CN2CCNCC2)C2(O)CCCCC2)c1 (stereo not drawn) [Example 298, 1-[1-(3-ethynylphenyl)-2-piperazin-1-ylethyl]cyclohexanol dihydrochloride] | 91
3 | C#Cc1cccc(C(CN2CCN(C)CC2)C2(O)CCCCC2)c1 (stereo not drawn) [Example 299, 1-[1-(3-ethynylphenyl)-2-(4-methylpiperazin-1-yl)ethyl]cyclohexanol dihydrochloride] | 95
4 | CC#Cc1cccc(C(CN2CCNCC2)C2(O)CCCCC2)c1 (stereo not drawn) [Example 300, 1-[2-piperazin-1-yl-1-(3-prop-1-ynylphenyl)ethyl]cyclohexanol dihydrochloride] | 38
5 | CC#Cc1cccc(C(CN2CCN(C)CC2)C2(O)CCCCC2)c1 (stereo not drawn) [Example 301, 1-[2-(4-methylpiperazin-1-yl)-1-(3-prop-1-ynylphenyl)ethyl]cyclohexanol dihydrochloride] | 23
6 | OC1(C(CN2CCCN(Cc3ccccc3)CC2)c2ccc(OC(F)(F)F)cc2)CCCCC1 (stereo not drawn) [Example 302, 1-{2-(4-benzyl-1,4-diazepan-1-yl)-1-[4(trifluoromethoxy)phenyl]ethyl}cyclohexanol dihydrochloride] | 50
7 | OC1(C(CN2CCNCC2)c2ccc(OC(F)(F)F)cc2)CCC1 (stereo not drawn) [Example 304, 1-{2-piperazin-1-yl-1-[4-(trifluoromethoxy)phenyl]ethyl}cyclobutanol dihydrochloride] | 41
8 | OC1(C(CN2CCN(CC3CCCCC3)CC2)c2ccc(Oc3ccccc3)cc2)CCCCC1 (stereo not drawn) [Example 309, 1-[2-[4-(cyclohexylmethyl)piperazin-1-yl]-1-(4-phenoxyphenyl)ethyl]cyclohexanol dihydrochloride] | 19.7
9 | OC1(C(CN2CCNCC2)c2cccc(Oc3ccccc3)c2)CCCCC1 (stereo not drawn) [Example 311, 1-[1-(3-phenoxyphenyl)-2-piperazin-1-ylethy]cyclohexanol dihydrochloride] | 86.2
10 | CN1CCN(CC(c2cccc(Oc3ccccc3)c2)C2(O)CCCCC2)CC1 (stereo not drawn) [Example 312, 1-[2-(4-methylpiperazin-1-yl)-1-(3-phenoxyphenyl)ethy]cyclohexanol dihydrochloride] | 57.3
11 | OC1(C(CN2CCN(CC3CCCCC3)CC2)c2cccc(Oc3ccccc3)c2)CCCCC1 (stereo not drawn) [Example 313, 1-[2-[4-(cyclohexylmethyl)piperazin-1-yl]-1-(3-phenoxyphenyl)ethyl]cyclohexanol dihydrochloride] | 57.3
12 | CN1CCN(CC(c2ccc(OCc3ccccc3)cc2)C2(O)CCCCC2)CC1 (stereo not drawn) [Example 322, 1-[2-(4-Methyl-1-piperazinyl)-1-[4-phenylmethoxy)phenyl]ethyl]cyclohexanol dihydrochloride] | 97.2
13 | OC1([C@@H](CN2CCNCC2)c2ccc(OCc3ccccc3)c(Cl)c2)CCCCC1 [Example 323, 1-{(1R)-1-[4-(benzyloxy)-3-chlorophenyl]-2-piperazin-1-ylethyl}cyclohexanol dihydrochloride] | 95.8
14 | OC1([C@H](CN2CCNCC2)c2ccc(OCc3ccccc3)c(Cl)c2)CCCCC1 [Example 324, 1-{(1S)-1-[4-(benzyloxy)-3-chlorophenyl]-2-piperazin-1-ylethyl}cyclohexanol dihydrochloride] | 98.4
15 | CN1CCN(C[C@@H](c2ccc(OCc3ccccc3)c(Cl)c2)C2(O)CCCCC2)CC1 [Example 325, 1-[(1R)-1-[4-(benzyloxy)-3-chlorophenyl]-2-(4-methylpiperazin-1-yl)ethyl]cyclohexanol dihydrochloride] | 93.9
16 | CN1CCN(C[C@H](c2ccc(OCc3ccccc3)c(Cl)c2)C2(O)CCCCC2)CC1 [Example 326, 1-[(1S)-1-[4-(benzyloxy)-3-chlorophenyl]-2-(4-methylpiperazin-1-yl)ethyl]cyclohexanol dihydrochloride] | 99.7

Continued, values first:

Row | inhibition at 1 µM [%] | SMILES
17 | 92 | CC(CCN1CCN(C[C@H](c2cccc(OC(F)(F)F)c2)C2(O)CCCCC2)CC1)c1ccccc1 (stereo partly drawn) [Example 347, 1-{(1S)-2-[4-(3-phenylbutyl)piperazin-1-yl]-1-[3-(trifluoromethoxy)phenyl]ethyl}cyclohexanol dihydrochloride]
18 | 91 | C[C@H]1CN(C[C@H](c2cccc(OC(F)(F)F)c2)C2(O)CCCCC2)CCN1 [Example 348, 1-{(1S)-2-[(3S)-3-methylpiperazin-1-yl]-1-[3-(trifluoromethoxy)phenyl]ethyl}cyclohexanol dihydrochloride]
19 | 82 | C[C@H]1CN(C[C@H](c2cccc(OC(F)(F)F)c2)C2(O)CCCCC2)CCN1C [Example 349, 1-{(1S)-2-[(3S)-3,4-dimethylpiperazin-1-yl]-1-[3-(trifluoromethoxy)phenyl]ethyl}cyclohexanol dihydrochloride]
20 | 79 | CCC1CN(C[C@H](c2cccc(OC(F)(F)F)c2)C2(O)CCCCC2)CCN1 (stereo partly drawn) [Example 350, 1-{(1S)-2-(3-ethylpiperazin-1-yl)-1-[3-(trifluoromethoxy)phenyl]ethyl}cyclohexanol dihydrochloride]
21 | 61 | CC[C@H]1CN(C[C@H](c2cccc(OC(F)(F)F)c2)C2(O)CCCCC2)CCN1C [Example 351, 1-{(1S)-2-[(3S)-3-ethyl-4-methylpiperazin-1-yl]-1-[3-(trifluoromethoxy)phenyl]ethyl}cyclohexanol dihydrochloride]
22 | 68 | CC[C@@H]1CN(C[C@H](c2cccc(OC(F)(F)F)c2)C2(O)CCCCC2)CCN1C [Example 352, 1-{(1S)-2-[(3R)-3-ethyl-4-methylpiperazin-1-yl]-1-[3-(trifluoromethoxy)phenyl]ethyl}cyclohexanol dihydrochloride]
23 | 51 | CC(C)N1CCN(CC(c2cccc(OC(F)(F)F)c2)C2(O)CCCCC2)CC1 (stereo not drawn) [Example 362, 1-{2-(4-isopropylpiperazin-1-yl)-1-[3-(trifluoromethoxy)phenyl]ethyl}cyclohexanol dihydrochloride]
24 | 42 | C[C@@H](c1ccccc1)N1CCN(C[C@H](c2cccc(OC(F)(F)F)c2)C2(O)CCCCC2)CC1 [Example 363, 1-{(1S)-2-{4-[(1S)-1-phenylethyl]piperazin-1-yl}-1-[3-(trifluoromethoxy)phenyl]ethyl}cyclohexanol dihydrochloride]
25 | 94 | C[C@@H]1CN(C[C@H](c2cccc(OC(F)(F)F)c2)C2(O)CCCCC2)C[C@H](C)N1 [Example 367, 1-{(1S)-2-[(3R,5S)-3,5-dimethylpiperazin-1-yl]-1-[3-(trifluoromethoxy)phenyl]ethyl}cyclohexanol dihydrochloride]
26 | 93 | C[C@@H]1CN(C[C@H](c2cccc(OC(F)(F)F)c2)C2(O)CCCCC2)C[C@H](C)N1C [Example 368, 1-{(1S)-1-[3-(trifluoromethoxy)phenyl]-2-[(3R,5S)-3,4,5-trimethylpiperazin-1-yl]ethyl}cyclohexanol dihydrochloride]
27 | 90 | C[C@@H]1CN(C[C@H](c2cccc(OC(F)(F)F)c2)C2(O)CCCCC2)CCN1 [Example 369, 1-{(1S)-2-[(3R)-3-methylpiperazin-1-yl]-1-[3-(trifluoromethoxy)phenyl]ethyl}cyclohexanol dihydrochloride]
28 | 79 | C[C@@H]1CN(C[C@H](c2cccc(OC(F)(F)F)c2)C2(O)CCCCC2)CCN1C [Example 370, 1-{(1S)-2-[(3R)-3,4-dimethylpiperazin-1-yl]-1-[3-(trifluoromethoxy)phenyl]ethyl}cyclohexanol dihydrochloride]
29 | 78 | OC1([C@H](CN2CCN3CCCCC3C2)c2cccc(OC(F)(F)F)c2)CCCCC1 (stereo partly drawn) [Example 371, 1-{(1S)-2-(octahydro-2H-pyrido[1,2-a]pyrazin-2-yl)-1-[3-(trifluoromethoxy)phenyl]ethyl}cyclohexanol dihydrochloride]
30 | 90 | CC(C)(CO)N1CCN(CC(c2cccc(OC(F)(F)F)c2)C2(O)CCCCC2)CC1 (stereo not drawn) [Example 373, 1-{2-[4-(2-hydroxy-1,1-dimethylethyl)piperazin-1-yl]-1-[3-(trifluoromethoxy)phenyl]ethyl}cyclohexanol dihydrochloride]
31 | 16 | OC1(C(CN2CCNCC2)c2ccc(Oc3cccc4ccccc34)cc2)CCCCC1 (stereo not drawn) [Example 389, 1-{1-[4-(1-naphthyloxy)phenyl]-2-piperazin-1-ylethyl}cyclohexanol dihydrochloride]
32 | 6 | COc1cc(C(CN2CCNCC2)C2(O)CCCCC2)cc(Br)c1OCc1ccccc1 (stereo not drawn) [Example 390, 1-{1-[4-(benzyloxy)-3-bromo-5-methoxyphenyl]-2-piperazin-1-ylethyl}cyclohexanol dihydrochloride]
33 | 30 | COc1cc(C(CN2CCN(C)CC2)C2(O)CCCCC2)cc(Br)c1OCc1ccccc1 (stereo not drawn) [Example 391, 1-[1-[4-(benzyloxy)-3-bromo-5-methoxyphenyl]-2-(4-methylpiperazin-1-yl)ethyl]cyclohexanol dihydrochloride]
34 | 68 | OC1(C(CN2CCNCC2)c2cc(Br)c(OCc3ccccc3)c(Br)c2)CCCCC1 (stereo not drawn) [Example 392, 1-{1-[4-(benzyloxy)-3,5-dibromophenyl]-2-piperazin-1-ylethyl}cyclohexanol dihydrochloride]

Same assay, conditions: 10 μM test compound (stated in the cell), [3H]NE uptake

Row | inhibition at 10 µM [%] | SMILES
35 | 44.5 | OC1(C(CN2CCNCC2)c2ccc(Oc3ccccc3)cc2)CCCCC1 (stereo not drawn) [Example 307, 1-[1-(4-phenoxyphenyl)-2-piperazin-1-ylethyl]cyclohexanol dihydrochloride]
36 | 35.9 | CN1CCN(CC(c2ccc(Oc3ccccc3)cc2)C2(O)CCCCC2)CC1 (stereo not drawn) [Example 308, 1-[2-(4-methylpiperazin-1-yl)-1-(4-phenoxyphenyl)ethy]cyclohexanol dihydrochloride]
